Where two headings read alike, the source gives them in different places.
Columns and labels:
[1] = system: human lung cancer cell line; conditions: cited from earlier work
lung tumors = conditions: cited from earlier work
tumors = assay: Pre-inhalation of the formula before inhaled 3-bromopyruvate; format: in vivo, rats
Experimental: The problem with 3-bromopyruvate was its toxicity to normal lung cells. The formula needed to protect noncancerous cells from 3-bromopyruvate and to enhance its effect on tumors, was the addition of inhaled 20 mM solution of sodium pyruvate, calcium, phosphate, magnesium formula inhaled 1-2 hours prior to the inhalation of the 10 mg of 3-bromopyruvate. The investigators were given the sodium pyruvate with calcium, phosphate and magnesium formula and instructed to have the rats inhale the formula 1-2 hours prior the inhalation of the cancer drug. This approach reduced tumor sizes by 90% compared the 60% reduction with 3bromopyruvate by itself. The addition of dichloroacetate with 3-bromopyruvate to the sodium pyruvate with calcium, phosphate and magnesium formula was the best formula decreasing tumor loads by 95%, especially with the addition of magnesium bicarbonate that increased the PH to 7.9 to neutralize the lactic acid produced in tumors that enhance tumorigenesis.

[2] = system: patients with lung diseases including COPD; assay: Comparison of inhaled salts of pyruvate, 5 ml of 5 mM solution (Table II); conditions: for Increased in FEV-1%: 5 ml of 5 mM solution in saline; for Increased in FEV-1% / Irritation / Percentage Increase in SaO2 over baseline / Percentage increase of Nitric Oxide over baseline / Relief of congestion, coughing and lung tightness: inhaled; for Irritation / Percentage Increase in SaO2 over baseline / Percentage increase of Nitric Oxide over baseline / Relief of congestion, coughing and lung tightness / Overall Rating 1-10: 5 ml of 5 mM solution; for Overall Rating 1-10: 1 most negative, 10 best
[3] = system: patients with lung diseases including COPD; assay: Comparison of inhaled salts of pyruvate, 5 ml of 0.5 mM solution (Table I); conditions: for Increased in FEV-1% lung function: 5 ml of 0.5 mM solution in physiological saline; for Overall Rating 1-10: 1 most negative, 10 best
Experimental: All previous studies using pyruvate to treat Allergic Rhinitis, Asthmatic and COPD patients used only the sodium salt form of pyruvic acid in saline. The drug products that were tested in the six Phase I/II clinical trial were differing concentrations of sodium pyruvate dissolved in 0.9% sodium chloride solution (Saline). These drug products contained 0.5 mM, 1.5 mM, or 5.0 mM of sodium pyruvate in physiological saline. They were administered to normal volunteers and COPD and asthmatics by inhalation therapy. […] Various sodium pyruvate solutions were evaluated in the lungs for their ability to enhance FEV1 values and reduce coughing, and lung tightness.
The amount of the salts delivered in the 5 ml's of the 0.5 mM pyruvate solutions were compared to the amounts of the salts in 5 ml's of human blood. […] When ethyl pyruvate reacts with oxygen radical like hydrogen peroxide, it is converted to ethane and alcohol and Co2 and acetate. Ethane and alcohol are lung irritants.
This formula can also be made by adding 3% calcium phosphate or dicalcium phosphate to the standard 0.5 mM to 30 mM sodium pyruvate saline solution see Table I.

[4] = system: patients with sinus & lung diseases including IPF and COPD; assay: Salts of pyruvate as 20 mM nasal sprays (Table IX); conditions: for Overall Rating 1-10: 20 mM (0.22%) nasal spray, 1 most negative, 10 best; for Increased in FEV-1% / Irritation / Percentage Increase in SaO2 over baseline / Percentage increase of Nitric Oxide over baseline / Relief of congestion, coughing and lung tightness: in vivo
From the text: They never tested the individual salts for their ability to reduce inflammation or increase lung functions.

[5] = system: patients suffering from Parkinson; assay: Inhaled pyruvate salts in Parkinson patients; format: in vivo, human; conditions: 1 mM solution in the calcium, phosphate, magnesium formula, inhaled every day for five weeks
Smokers = assay: Inhaled nicotine in pyruvate formulas
[6] = system: patients with chronic Hypoxemia; assay: Various drugs with or without pre-inhaled pyruvate formulas (Table VII); format: in vivo, human; conditions: in vivo
Experimental: With the hundreds of patients tested in our various clinical trials, data was gathered as to the type of medications the patients used and the frequency of their use over a six-month period. The patients were asked to rate their medications form 1-10 with 1 being the most irritating with the most side effects and 10 being the best with no irritation and no side effects. In these clinical trials, various drugs were evaluated for irritation, mucus production, and efficacy in humans. The drugs were all evaluated using their current formulations and concentrations against the same formulations with the addition of sodium pyruvate, with the calcium, phosphate and magnesium formula given just prior to the use of their medications. They were instructed to 20 inhale this formula just prior to the use of their medications and to evaluate the effect of their medications on the 1-10 scale.
Patients on the various inhaled medications whether inhaled or taken orally or by IV infusion, were enlisted in the evaluation of the inhaled sodium pyruvate calcium, phosphate and magnesium formula. The patients were tested for their SaO2 levels and those that had SaO2 levels below 92% were asked to enlist in the study. […] After the SaO2 levels were determined prior to and one hour after taking their medications, the patients returned the following day, SaO2 measurements were taken one hour prior to taking their medications. The patients were then handed the hypotonic inhalation formula of sodium pyruvate with calcium, phosphate magnesium formula and instructed to inhale it one hour before taking their medications, SaO2 measurements were then taken one hour after taking their medications.

[7] = Mucolytic activity with inhaled acetylcysteine; format: in vivo, human; conditions: with or versus commercial inhaled acetylcysteine
[8] = 1 atm, cited from earlier work
[9] = system: Patients with a severe case of CIVID-19 infection; format: in vivo, human; conditions: 5 patients treated with just the gas
SARS CoV = format: cell-based
[10] = system: porcine respiratory coronavirus (PRCV); assay: Antiviral assay with NO donor in swine testicular (ST) cells; format: cell-based; conditions: NO donor SNAP
Experimental: We examined NO levels by Greiss assay in bronchoalveolar lavage (BAL) of pigs infected with either porcine respiratory coronavirus (PRCV). The antiviral effects of NO on this virus was tested in an in vitro system using a NO donor, S-nitroso-N-acetyl penicillamine (SNAP). We detected a large increase in NO levels in BAL fluids of PRCV-infected pigs. Pulmonary epithelial cell necrosis induced by PRCV coincided with increased NO. […] NO plays a role in innate immunity to respiratory CoV infections by inhibiting viral replication.

[11] = aerosol, 10 mg/5 mL by inhalation, 8 weeks
[12] = 5 ml of 0.5 mM solution, inhaled

O=C(O)C(=O)CBr [3-bromopyruvate]
apoptosis [1]: induced apoptosis through caspase-3, and PARP | decreased tumor load (lung tumors; [11]): 60% | decreased tumor multiplicity (lung tumors; [11]): 40% | liver toxicity (lung tumors; aerosolized): did not accompany any liver toxicity | reduced tumor sizes (tumors; 20 mM sodium pyruvate, calcium, phosphate, magnesium formula inhaled 1-2 hours prior to 10 mg of 3-bromopyruvate): 90% | reduction of tumor sizes (tumors; by itself): 60%

CC(=O)C(=O)[O-].[Li+] [Lithium, lithium pyruvate]
Increased in FEV-1% [2]: 1.0% | Irritation [2]: Yes | Percentage Increase in SaO2 over baseline [2]: No | Percentage increase of Nitric Oxide over baseline [2]: 28.0% | Relief of congestion, coughing and lung tightness [2]: 2 | Overall Rating 1-10 [2]: 2 | Increased in FEV-1% lung function ([3]; inhaled): 1.0% | Irritation [3, 12]: Yes | Percentage Increase in SaO2 over baseline [3, 12]: No | Percentage decrease or increase of Nitric Oxide over baseline [3, 12]: +6.0% | Relief of congestion, coughing and lung tightness [3, 12]: 2 | Overall Rating 1-10 ([3]; 5 ml of 0.5 mM solution): 2 | reduction of nitric oxide ([3]; 5 mls of a 0.5 mM inhalation solution): did not reduce nitric oxide | irritation in the nasal cavities compared with the lungs ([3]; evaluated in the nasal cavities): even more irritating | bronchial dilator effect ([3]; inhaled): acting as a bronchial dilator | Irritation ([3]; inhaled into the lungs): irritating | Overall Rating 1-10 [4]: 2 | Increased in FEV-1% [4]: 0.0% | Irritation [4]: Yes | Percentage Increase in SaO2 over baseline [4]: No | Percentage increase of Nitric Oxide over baseline [4]: 00.0% | Relief of congestion, coughing and lung tightness [4]: 2 | shaking [5]: substantially reduced

CN1CCCC1c1cccnc1 (stereo not shown) [Nicotine]
ability of each patient to determine the effect of nicotine delayed (Smokers; Nicotine delivered only with sodium pyruvate in saline solution): 26% | tolerability (Smokers; nicotine in modified formula sodium pyruvate and calcium, phosphate and magnesium, nasal or lungs): well tolerated | SaO2 Measurements taken after medication and compared to baseline [6]: −3 | SaO2 Measurements taken after taking the medication and compared to baseline [6]: +2 | SaO2 measurements taken after taking medication and compared to baseline [6]: +4

CC(=O)C(=O)N[C@@H](CS)C(=O)O [Pyruvyl-cysteine]
Increased in FEV-1% [2]: 5% | Percentage Increase in SaO2 over baseline [2]: 0% | Percentage increase of Nitric Oxide over baseline [2]: 1% | Relief of congestion, coughing and lung tightness [2]: 8 | Overall Rating 1-10 [2]: 8 | Increased in FEV-1% lung function ([3]; inhaled): 11% | Percentage Increase in SaO2 over baseline [3, 12]: 0% | Percentage decrease or increase of Nitric Oxide over baseline [3, 12]: 0% | Relief of congestion, coughing and lung tightness [3, 12]: 5 | Overall Rating 1-10 ([3]; 5 ml of 0.5 mM solution): 8 | mucolytic activity [7]: as effective as acetylcysteine

[N]=O [nitric oxide]
solubility in water ([8]; 20° C.): 4.6 ml/100 ml | solubility in water ([8]; 60° C.): 2.37 ml/100 ml | lung surfactants and lung fibrosis [9]: did not increase lung surfactants or reduce lung fibrosis | replication cycle of SARS CoV (SARS CoV): specifically inhibits the replication cycle of SARS CoV | PRCV replication [10]: significantly inhibited PRCV replication

magnesium pyruvate
Increased in FEV-1% [2]: 2.0% | Irritation [2]: None | Percentage Increase in SaO2 over baseline [2]: no | Percentage increase of Nitric Oxide over baseline [2]: 5.1% | Relief of congestion, coughing and lung tightness [2]: 6 | Overall Rating 1-10 [2]: 7 | Increased in FEV-1% lung function ([3]; inhaled): 12.0% | Irritation [3, 12]: None | Percentage Increase in SaO2 over baseline [3, 12]: no | Percentage decrease or increase of Nitric Oxide over baseline [3, 12]: −2.0% | Relief of congestion, coughing and lung tightness [3, 12]: 6 | Overall Rating 1-10 ([3]; 5 ml of 0.5 mM solution): 7 | FEV1 ([3]; 5 mls of a 0.5 mM pyruvate inhalation solution in COPD and asthmatic patients): 10% | Overall Rating 1-10 [4]: 4 | Increased in FEV-1% [4]: 4.0% | Irritation [4]: slight | Percentage Increase in SaO2 over baseline [4]: no | Percentage increase of Nitric Oxide over baseline [4]: 5.1% | Relief of congestion, coughing and lung tightness [4]: 6 | shaking [5]: also worked

From patent publication US11628186B2, “Method and composition for the reduction of viral replication, duration and spread of the COVID-19 and the flu” (priority 2017, dated 2023)
